According to PubChem BioAssay AID330 (DTP/NCI, 2004):
Several values for one entry are separate records, joined by “and”; a condition that tells them apart may be missing. Identical values can stand only once. Inconclusive results and toxic doses are left out.

Test system: P388 leukemia ip, CD2F1 mice, survival T/C
Assay: NCI In Vivo Anticancer Drug Screen. Data for tumor model P388 Leukemia (intraperitoneal) in CD2F1 (CDF1) mice
Conditions: endpoint: median survival time, higher = longer survival
Procedure, shortened: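 Mice carrying the transplanted tumor received test compound or vehicle. Survival was recorded in each group, and the value is the treated-group measurement divided by that of the vehicle-treated control group.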

[1] = dose: 50.0 mg/kg/injection, schedule: Q01DX009 (ip), vehicle: saline with Tween-80
[2] = dose: 100.0 mg/kg/injection, schedule: Q01DX009 (ip), vehicle: saline with Tween-80
[3] = dose: 200.0 mg/kg/injection, schedule: Q01DX009 (ip), vehicle: saline with Tween-80
[4] = dose: 25.0 mg/kg/injection, schedule: Q01DX005 (ip), vehicle: Klucel (hydroxypropylcellulose) (HPC)
[5] = dose: 50.0 mg/kg/injection, schedule: Q01DX005 (ip), vehicle: Klucel (hydroxypropylcellulose) (HPC)
[6] = dose: 100.0 mg/kg/injection, schedule: Q01DX005 (ip), vehicle: Klucel (hydroxypropylcellulose) (HPC)
[7] = dose: 50.0 mg/kg/injection, schedule: Q01DX009 (ip), vehicle: saline
[8] = dose: 100.0 mg/kg/injection, schedule: Q01DX009 (ip), vehicle: saline
[9] = dose: 200.0 mg/kg/injection, schedule: Q01DX009 (ip), vehicle: saline
[10] = dose: 6.25 mg/kg/injection, schedule: Q01DX005 (ip), vehicle: saline
[11] = dose: 60.0 mg/kg/injection, schedule: Q01DX005 (ip), vehicle: saline with Tween-80
[12] = dose: 120.0 mg/kg/injection, schedule: Q01DX005 (ip), vehicle: saline with Tween-80
[13] = dose: 240.0 mg/kg/injection, schedule: Q01DX005 (ip), vehicle: saline with Tween-80

## CC(=O)OC1CCC2(C)C(C1)CC(OC(C)=O)C1C2CC(OC(C)=O)C2(C)C(C(C)CC=C(c3ccccc3)c3ccccc3)CCC12 (stereo not given)
[1]
  T/C: 100 % of control
[2]
  T/C: 98 % of control
[3]
  T/C: 99 % of control

## O=P(NC1CCCC1)(N1CC1)N1CC1
dose: 2.0 mg/kg/injection, schedule: Q04DX003 (ip), vehicle: saline
  T/C: 110 % of control
dose: 2.66 mg/kg/injection, schedule: Q01DX009 (ip), vehicle: saline
  T/C: 154 % of control
dose: 4.0 mg/kg/injection, schedule: Q01DX009 (ip), vehicle: saline
  T/C: 209 % of control
dose: 4.0 mg/kg/injection, schedule: Q04DX003 (ip), vehicle: saline
  T/C: 120 % of control
dose: 6.0 mg/kg/injection, schedule: Q01DX009 (ip), vehicle: saline
  T/C: 118 % of control
dose: 8.0 mg/kg/injection, schedule: Q04DX003 (ip), vehicle: saline
  T/C: 200 % of control
dose: 9.0 mg/kg/injection, schedule: Q01DX009 (ip), vehicle: saline
  T/C: 100 % of control

## Clc1ccc2c(c1)nc(-c1ccccn1)n2CCc1ccccn1
[4]
  T/C: 99 % of control
[5]
  T/C: 104 % of control
[6]
  T/C: 101 % of control
dose: 200.0 mg/kg/injection, schedule: Q01DX005 (ip), vehicle: Klucel (hydroxypropylcellulose) (HPC)
  T/C: 93 % of control

## C=C(C)Cn1ccn(C)c1=S
dose: 100.0 mg/kg/injection, schedule: Q04DX003 (ip), vehicle: saline with Tween-80
  T/C: 96 % of control
dose: 200.0 mg/kg/injection, schedule: Q04DX003 (ip), vehicle: saline with Tween-80
  T/C: 98 % of control
dose: 400.0 mg/kg/injection, schedule: Q04DX003 (ip), vehicle: saline with Tween-80
  T/C: 102 % of control

## Nn1c(-c2nn[nH]n2)nnc1-c1nn[nH]n1
[4]
  T/C: 100 % of control
[5]
  T/C: 100 % of control
[6]
  T/C: 95 % of control

## CCN(CC)CCC1CN(C(C)C)CC1(c1ccccc1)c1ccccc1 (stereo not given)
[7]
  T/C: 101 % of control
[8]
  T/C: 109 % of control
[9]
  T/C: 116 % of control

## CCCn1c(O)c(C=N)c(=O)[nH]c1=O
[2]
  T/C: 87 % of control
[3]
  T/C: 95 % of control

## Cc1c(O)c(=O)ccn1CCN
dose: 50.0 mg/kg/injection, schedule: Q01DX005 (ip), vehicle: saline
  T/C: 98 % of control and 102 % of control
dose: 100.0 mg/kg/injection, schedule: Q01DX005 (ip), vehicle: saline
  T/C: 100 % of control and 109 % of control
dose: 200.0 mg/kg/injection, schedule: Q01DX005 (ip), vehicle: saline
  T/C: 99 % of control and 104 % of control
dose: 400.0 mg/kg/injection, schedule: Q01DX005 (ip), vehicle: saline
  T/C: 91 % of control and 95 % of control

## O=C([O-])c1c[n+]2c(cc1C(=O)O)-c1cc3c(cc1CC2)OCO3
dose: 0.63 mg/kg/injection, schedule: Q01DX009 (ip), vehicle: distilled water + Tween-80
  T/C: 99 % of control
dose: 1.25 mg/kg/injection, schedule: Q01DX009 (ip), vehicle: distilled water + Tween-80
  T/C: 94 % of control
dose: 2.5 mg/kg/injection, schedule: Q01DX009 (ip), vehicle: distilled water + Tween-80
  T/C: 94 % of control
dose: 5.0 mg/kg/injection, schedule: Q01DX009 (ip), vehicle: distilled water + Tween-80
  T/C: 94 % of control
dose: 10.0 mg/kg/injection, schedule: Q01DX009 (ip), vehicle: distilled water + Tween-80
  T/C: 99 % of control
dose: 20.0 mg/kg/injection, schedule: Q01DX009 (ip), vehicle: distilled water + Tween-80
  T/C: 100 % of control

## COC(NC(N)=O)C(=O)O (stereo not given)
[1]
  T/C: 99 % of control
[2]
  T/C: 99 % of control
[3]
  T/C: 99 % of control

## CN=C(c1ccc(NC(=O)c2ccc(C(=O)Nc3ccc(C(=NC)N4CCOCC4)cc3)c(Cl)c2)cc1)N1CCOCC1
dose: 0.19 mg/kg/injection, schedule: Q01DX005 (ip), vehicle: saline
  T/C: 97 % of control
dose: 0.39 mg/kg/injection, schedule: Q01DX005 (ip), vehicle: saline
  T/C: 100 % of control
dose: 0.78 mg/kg/injection, schedule: Q01DX005 (ip), vehicle: saline
  T/C: 100 % of control
dose: 1.56 mg/kg/injection, schedule: Q01DX005 (ip), vehicle: saline
  T/C: 100 % of control
[10]
  T/C: 107 % of control

## N/C(=N\OC(=O)Nc1ccc(Cl)c(Cl)c1)c1ccccc1
[7]
  T/C: 101 % of control
[8]
  T/C: 104 % of control
[9]
  T/C: 100 % of control

## CCC(C)N(C(=O)c1ccccc1)c1ccccc1 (stereo not given)
dose: 12.5 mg/kg/injection, schedule: Q01DX009 (ip), vehicle: other
  T/C: 99 % of control and 106 % of control
dose: 12.5 mg/kg/injection, schedule: Q01DX009 (ip), vehicle: saline + Tween-80 + alcohol
  T/C: 101 % of control
dose: 25.0 mg/kg/injection, schedule: Q01DX009 (ip), vehicle: other
  T/C: 100 % of control and 102 % of control
dose: 25.0 mg/kg/injection, schedule: Q01DX009 (ip), vehicle: saline + Tween-80 + alcohol
  T/C: 104 % of control
dose: 50.0 mg/kg/injection, schedule: Q01DX009 (ip), vehicle: other
  T/C: 102 % of control
dose: 50.0 mg/kg/injection, schedule: Q01DX009 (ip), vehicle: saline + Tween-80 + alcohol
  T/C: 106 % of control

## CC(C)c1cc(=O)c2cc3[nH]c4ccccc4c3cc2[nH]1
dose: 50.0 mg/kg/injection, schedule: Q01DX005 (ip), vehicle: saline with Tween-80
  T/C: 97 % of control
dose: 100.0 mg/kg/injection, schedule: Q01DX005 (ip), vehicle: saline with Tween-80
  T/C: 87 % of control
dose: 200.0 mg/kg/injection, schedule: Q01DX005 (ip), vehicle: saline with Tween-80
  T/C: 90 % of control

## COCCCNC(=O)c1nnn2c1nc(N)c1cc(Cl)ccc12
[5]
  T/C: 94 % of control
[6]
  T/C: 88 % of control

## CCCCCCCCCCC(O)Cn1ccnc1 (stereo not given)
dose: 12.5 mg/kg/injection, schedule: Q01DX009 (ip), vehicle: saline with Tween-80
  T/C: 96 % of control
dose: 25.0 mg/kg/injection, schedule: Q01DX009 (ip), vehicle: saline with Tween-80
  T/C: 100 % of control
[1]
  T/C: 95 % of control

## Cc1nc(-c2ccccc2)oc1C(N)=O
dose: 50.0 mg/kg/injection, schedule: Q01DX009 (ip), vehicle: Klucel (hydroxypropylcellulose) (HPC)
  T/C: 108 % of control
dose: 100.0 mg/kg/injection, schedule: Q01DX009 (ip), vehicle: Klucel (hydroxypropylcellulose) (HPC)
  T/C: 110 % of control

## CCOC(=O)Cc1csc2nc(-c3ccccc3)cn12
[11]
  T/C: 115 % of control
[12]
  T/C: 104 % of control
[13]
  T/C: 106 % of control

## CCO/C=C1/N=C(Cc2ccc(Br)cc2)OC1=O
[11]
  T/C: 94 % of control
[12]
  T/C: 90 % of control

## C1=C[N]2c3c4c(ccc3=C1)=CC=C[N]4[Ga]2[c]1ccccc1
dose: 6.25 mg/kg/injection, schedule: Q01DX009 (ip), vehicle: Klucel (hydroxypropylcellulose) (HPC)
  T/C: 103 % of control
dose: 12.5 mg/kg/injection, schedule: Q01DX009 (ip), vehicle: Klucel (hydroxypropylcellulose) (HPC)
  T/C: 106 % of control
dose: 25.0 mg/kg/injection, schedule: Q01DX009 (ip), vehicle: Klucel (hydroxypropylcellulose) (HPC)
  T/C: 118 % of control

## CCOc1ccc2c(c1)c(C)cc(C)[n+]2CC
dose: 6.25 mg/kg/injection, schedule: Q04DX003 (ip), vehicle: saline with Tween-80
  T/C: 97 % of control
dose: 12.5 mg/kg/injection, schedule: Q04DX003 (ip), vehicle: saline with Tween-80
  T/C: 99 % of control

## C[S+](C)CCCNC(=O)c1csc(-c2csc(-c3cscn3)n2)n1
[10]
  T/C: 104 % of control
dose: 12.5 mg/kg/injection, schedule: Q01DX005 (ip), vehicle: saline
  T/C: 96 % of control

## COc1nc(=O)n(C2OC(=O)C(C)(C)C2=O)cc1F (stereo not given)
dose: 11.25 mg/kg/injection, schedule: Q04DX002 (ip), vehicle: distilled water + Tween-80
  T/C: 100 % of control
dose: 22.5 mg/kg/injection, schedule: Q04DX002 (ip), vehicle: distilled water + Tween-80
  T/C: 106 % of control
dose: 45.0 mg/kg/injection, schedule: Q04DX002 (ip), vehicle: distilled water + Tween-80
  T/C: 100 % of control
dose: 90.0 mg/kg/injection, schedule: Q04DX002 (ip), vehicle: distilled water + Tween-80
  T/C: 106 % of control
dose: 180.0 mg/kg/injection, schedule: Q04DX002 (ip), vehicle: distilled water + Tween-80
  T/C: 96 % of control
dose: 360.0 mg/kg/injection, schedule: Q04DX002 (ip), vehicle: distilled water + Tween-80
  T/C: 100 % of control

## O=C1CC2(C(=O)O1)c1ccccc1-c1ccccc12
[11]
  T/C: 111 % of control
[12]
  T/C: 105 % of control
[13]
  T/C: 112 % of control

## CCCCN(CCCC)CC(O)c1cc(-c2ccc(Cl)cc2)nc2c(Cl)cc(Cl)cc12 (stereo not given)
dose: 60.0 mg/kg/injection, schedule: Q01DX005 (ip), vehicle: Klucel + Tween-80
  T/C: 100 % of control
dose: 120.0 mg/kg/injection, schedule: Q01DX005 (ip), vehicle: Klucel + Tween-80
  T/C: 88 % of control
